The test addresses Signal transducer and activator of transcription 3 (Homo sapiens, UniProt P40763). The test is described as follows: Inhibition of IL-6-Induced STAT3 activation (unknown origin) expressed in human HepG2 cells expressing pSTAT3-luciferase pre-incubated for 1 hr before IL-6 stimulation for 6 hrs by luciferase reporter gene assay. For orientation: In a reporter assay the amount or activity of a reporter protein is the signal.
Signal transducer and activator of transcription 3, sequence (P40763 whole entry): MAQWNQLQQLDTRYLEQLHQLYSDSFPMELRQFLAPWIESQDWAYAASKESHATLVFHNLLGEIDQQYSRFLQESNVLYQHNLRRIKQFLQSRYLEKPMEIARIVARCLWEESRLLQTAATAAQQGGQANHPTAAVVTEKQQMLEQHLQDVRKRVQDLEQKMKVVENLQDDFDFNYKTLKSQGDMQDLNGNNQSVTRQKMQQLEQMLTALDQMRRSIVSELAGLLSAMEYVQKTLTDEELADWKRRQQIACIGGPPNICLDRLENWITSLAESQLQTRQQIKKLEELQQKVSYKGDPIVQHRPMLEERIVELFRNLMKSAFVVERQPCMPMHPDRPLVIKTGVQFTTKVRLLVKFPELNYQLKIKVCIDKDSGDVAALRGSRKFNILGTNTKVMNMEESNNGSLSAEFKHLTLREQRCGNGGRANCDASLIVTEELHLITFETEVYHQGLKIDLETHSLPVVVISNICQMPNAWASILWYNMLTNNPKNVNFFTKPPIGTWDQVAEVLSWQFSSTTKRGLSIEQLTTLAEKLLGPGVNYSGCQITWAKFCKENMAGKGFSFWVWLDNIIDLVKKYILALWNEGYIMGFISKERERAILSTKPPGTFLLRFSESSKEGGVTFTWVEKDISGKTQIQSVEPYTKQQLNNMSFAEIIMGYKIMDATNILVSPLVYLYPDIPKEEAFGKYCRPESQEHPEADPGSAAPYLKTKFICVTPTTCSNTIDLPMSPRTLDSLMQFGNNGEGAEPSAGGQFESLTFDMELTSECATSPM
`COC(=O)C1=CO[C@@H](O[C@@H]2O[C@H](CO)[C@@H](O)[C@H](O)[C@H]2O)[C@@H]2[C@H](C)O[C@H](O[C@H]3[C@H](O[C@@H]4OC=C(C(=O)OC)[C@H]5C[C@@H](OC)O[C@@H](C)[C@@H]45)O[C@H](CO)[C@@H](O)[C@@H]3O)C[C@H]12` gave a 50% inhibitory concentration (IC50) of 19.4 µM.
The same measure for `CCO[C@H]1C[C@@H]2C(C(=O)OC)=CO[C@@H](O[C@@H]3O[C@H](CO[C@H]4C[C@@H]5C(C(=O)OC)=CO[C@@H](O[C@@H]6O[C@H](CO)[C@@H](O)[C@H](O)[C@H]6O)[C@@H]5[C@H](C)O4)[C@@H](O)[C@H](O)[C@H]3O)[C@@H]2[C@H](C)O1`: > 100 µM; for `COC(=O)C1=CO[C@@H](O[C@@H]2O[C@H](CO)[C@@H](O)[C@H](O)[C@H]2O[C@@H]2C[C@@H]3C(C(=O)OC)=CO[C@@H](O[C@@H]4O[C@H](CO)[C@@H](O)[C@H](O)[C@H]4O)[C@@H]3[C@H](C)O2)[C@@H]2[C@@H](C)[C@@H](O)C[C@H]12`: 40.5 µM.
Under `COC(=O)C1=CO[C@@H](O[C@@H]2O[C@H](CO[C@@H]3C[C@@H]4C(C(=O)OC)=CO[C@@H](O[C@@H]5O[C@H](CO)[C@@H](O)[C@H](O)[C@H]5O)[C@@H]4[C@H](C)O3)[C@@H](O)[C@H](O)[C@H]2O)[C@@H]2[C@H](C)O[C@H](OC)C[C@H]12` stands 27.6 µM; under `COC(=O)C1=CO[C@@H](O[C@@H]2O[C@H](CO[C@H]3C[C@@H]4C(C(=O)OC)=CO[C@@H](O[C@@H]5O[C@H](CO)[C@@H](O)[C@H](O)[C@H]5O)[C@@H]4[C@H](C)O3)[C@@H](O)[C@H](O)[C@H]2O)[C@@H]2[C@H](C)O[C@@H](OC)C[C@H]12`, > 100 µM.
Under `COC(=O)C1=CO[C@@H](O[C@@H]2O[C@H](CO)[C@@H](O)[C@H](O)[C@H]2O)[C@@H]2[C@H](C)O[C@@H](OC)C[C@H]12` stands 24.8 µM.
As for `COC(=O)C1=CO[C@@H](O[C@@H]2O[C@H](CO)[C@@H](O)[C@H](O)[C@H]2O)[C@@H]2[C@H](C)O[C@H](OC)C[C@H]12`, the IC50 was 32.5 µM. This IC50 and that of the molecule before are within 1.5-fold of each other.
Under `COC(=O)C1=CO[C@@H](O[C@@H]2O[C@H](CO)[C@@H](O)[C@H](O)[C@H]2O)[C@@H]2[C@@H](C)[C@@H](O[C@H]3C[C@@H]4C(C(=O)OC)=CO[C@@H](O[C@@H]5O[C@H](CO)[C@@H](O)[C@H](O)[C@H]5O)[C@@H]4[C@@H](C)O3)C[C@H]12` stands 71.9 µM.
The same measure for `COC(=O)C1=CO[C@@H](O[C@@H]2O[C@H](CO)[C@@H](O[C@H]3C[C@@H]4C(C(=O)OC)=CO[C@@H](O[C@@H]5O[C@H](C)[C@@H](O)[C@H](O)[C@H]5O)[C@@H]4[C@H](C)O3)[C@H](O)[C@H]2O)[C@@H]2[C@@H](C)[C@@H](O)C[C@H]12`: 52.6 µM; for `COC(=O)C1=CO[C@@H](O[C@@H]2O[C@H](CO[C@@H]3C[C@@H]4C(C(=O)OC)=CO[C@@H](O[C@@H]5O[C@H](CO)[C@@H](O)[C@H](O)[C@H]5O)[C@@H]4[C@H](C)O3)[C@@H](O)[C@H](O)[C@H]2O)[C@@H]2[C@@H](C)[C@@H](O)C[C@H]12`: 12.2 µM.
The same measure for `COC(=O)C1=CO[C@@H](O[C@@H]2O[C@H](CO[C@@H]3C[C@@H]4C(C(=O)OC)=CO[C@@H](O[C@@H]5O[C@H](CO)[C@@H](O)[C@H](O)[C@H]5O)[C@@H]4[C@H](C)O3)[C@@H](O)[C@H](O)[C@H]2O)[C@@H]2[C@H](C)O[C@@H](OC)C[C@H]12`: 43 µM; for `COC(=O)C1=CO[C@@H](O[C@@H]2O[C@H](CO)[C@@H](O)[C@H](O)[C@H]2O)[C@@H]2[C@H](C)O[C@H](O[C@H]3[C@H](O[C@@H]4OC=C(C(=O)OC)[C@H]5C[C@H](OC)O[C@@H](C)[C@@H]45)O[C@H](CO)[C@@H](O)[C@@H]3O)C[C@H]12`: 21.9 µM; for `COC(=O)C1=CO[C@@H](O[C@@H]2O[C@H](C)[C@@H](O)[C@H](O)[C@H]2O)[C@@H]2[C@H](C)O[C@@H](O[C@@H]3[C@@H](O)[C@H](O[C@@H]4OC=C(C(=O)OC)[C@H]5C[C@@H](OC)O[C@@H](C)[C@@H]45)O[C@H](CO)[C@H]3O)C[C@H]12`: 29.7 µM.
Molecule `COC(=O)C1=CO[C@@H](O[C@@H]2O[C@H](C)[C@@H](O)[C@H](O)[C@H]2O)[C@@H]2[C@H](C)O[C@@H](O[C@@H]3[C@@H](O)[C@H](O[C@@H]4OC=C(C(=O)OC)[C@H]5C[C@H](OC)O[C@@H](C)[C@@H]45)O[C@H](CO)[C@H]3O)C[C@H]12` displayed an IC50 of 11.9 µM.
The same measure for `COC(=O)C1=CO[C@@H](O[C@@H]2O[C@H](CO)[C@@H](O)[C@H](O)[C@H]2O)[C@@H]2[C@H](C)O[C@@H](O[C@H]3[C@H](O[C@@H]4OC=C(C(=O)OC)[C@H]5C[C@H](OC)O[C@@H](C)[C@@H]45)O[C@H](CO)[C@@H](O)[C@@H]3O)C[C@H]12`: > 100 µM; for `CCO[C@H]1C[C@@H]2C(C(=O)OC)=CO[C@@H](O[C@@H]3O[C@H](CO)[C@@H](O)[C@H](O)[C@H]3O)[C@@H]2[C@H](C)O1`: 67 µM.
Under `CCO[C@@H]1C[C@@H]2C(C(=O)OC)=CO[C@@H](O[C@@H]3O[C@H](CO[C@H]4C[C@@H]5C(C(=O)OC)=CO[C@@H](O[C@@H]6O[C@H](CO)[C@@H](O)[C@H](O)[C@H]6O)[C@@H]5[C@H](C)O4)[C@@H](O)[C@H](O)[C@H]3O)[C@@H]2[C@H](C)O1` stands > 100 µM.
The same measure for `COC(=O)C1=CO[C@@H](O[C@@H]2O[C@H](C)[C@@H](O)[C@H](O)[C@H]2O)[C@@H]2[C@H](C)O[C@@H](O[C@H]3[C@H](O)[C@@H](O)[C@H](O[C@@H]4OC=C(C(=O)OC)[C@H]5C[C@H](OC)O[C@@H](C)[C@@H]45)O[C@@H]3CO)C[C@H]12`: 79.1 µM.
`CCO[C@@H]1C[C@@H]2C(C(=O)OC)=CO[C@@H](O[C@@H]3O[C@H](CO)[C@@H](O)[C@H](O)[C@H]3O)[C@@H]2[C@H](C)O1`: the concentration for half-maximal inhibition (IC50) is > 100 µM.
Molecule `COC(=O)C1=CO[C@@H](O[C@@H]2O[C@H](CO)[C@@H](O)[C@H](O)[C@H]2O)[C@@H]2[C@H](C)O[C@@H](OC[C@H]3O[C@@H](O[C@@H]4OC=C(C(=O)OC)[C@H]5C[C@@H](OC)O[C@@H](C)[C@@H]45)[C@H](O)[C@@H](O)[C@@H]3O)C[C@H]12` displayed a half-maximal inhibitory concentration (IC50) of 47 µM.
`COC(=O)C1=CO[C@@H](O[C@@H]2O[C@H](CO)[C@@H](O)[C@H](O)[C@H]2O)[C@@H]2[C@H](C)[C@@H](O)C[C@H]12` [7-Epi-Loganin] registered an IC50 of 22.9 µM.
Molecule `COC(=O)C1=CO[C@@H](O[C@@H]2O[C@H](CO)[C@@H](O)[C@H](O)[C@H]2O)[C@@H]2[C@H](C)O[C@H](O)C[C@H]12` [(7Alpha-Hydroxy)-Morroniside] showed an IC50 of 7 µM.
The same measure for `COC(=O)C1=CO[C@@H](O[C@@H]2O[C@H](CO)[C@@H](O)[C@H](O)[C@H]2O)[C@@H]2[C@H](C)O[C@@H](O)C[C@H]12` [CHEBI:80852]: 6.9 µM.
Under `C=C[C@H]1[C@H](O[C@@H]2O[C@H](CO)[C@@H](O)[C@H](O)[C@H]2O)OC=C2C(=O)OCC[C@H]21` [CHEBI:80907] stands 89.5 µM; under `COC(=O)C1=CO[C@@H](O[C@@H]2O[C@H](CO)[C@@H](O)[C@H](O)[C@H]2O)[C@@H]2[C@@H](C)[C@@H](O)C[C@H]12` [Loganin], 14 µM.
`O=c1c(-c2ccc(O)cc2)coc2cc(O)cc(O)c12` [Prunetol]: the half-inhibitory concentration (IC50) is 24.8 µM.

Broadly, the IC50 is the point on the concentration scale where inhibition reaches its midpoint. A lower IC50 goes with higher potency.

Values taken from BindingDB's records for doi:10.1021/acs.jnatprod.6b01127 (Beijing University of Chinese Medicine, 2017).
